Measured values published in US11186614B2, “Anti-HIV peptides” (priority 2016, dated 2021).
Entries after “also recorded” stand apart in the source; their conditions may differ.

B1: SUMO: Small Ubiquitin-like Modifier, a 12 kDa protein, fusion partner control (protein, UniProt Q12306 2-98, looked up)
Ubiquitin-like protein SMT3: SDSEVNQEAKPEVKPEVKPETHINLKVSDGSSEIFFKIKKTTPLRRLMEAFAKRQGKEMDSLRFLYDGIRIQADQTPEDLDMEDNDIIEAHREQIGG

Key:
HIV TAR = assay: ELISA RNA binding of SUMO fusion proteins, HIV TAR; design: species or system HIV-1
Text: (§1) FIG. 6A-B depicts SUMO-(GGS)3-β2-β3 and graphs of ELISA data. (A) Diagram of the SUMO-(GGS)3-β2-β3 hairpin loop of TBP6.7 fused to SUMO.
(§2) Protein engineering was used to test whether an isolated β2-β3 hairpin of TBP6.7 (FIG. 2) retains TAR binding. Specifically, a fusion protein was created comprising the TBP6.7 β2-β3 hairpin (FIG. 6A) linked by flexible, soluble spacer (GGS)3 to SUMO (Small Ubiquitin-like Modifier), a 12 kDa protein that expresses well in E. coli and stabilizes a variety of structurally diverse fusion proteins.^114 The affinity for TAR was then measured by ELISA (FIG. 6B).
(§3) To test for TAR binding by the isolated β2-β3 loop sequence, we first fused this short peptide to SUMO (Small Ubiquitin-like Modifier). […] Arg-to-Ala mutants were then tested.
(§4) SUMO is 12 kDa protein that expresses well in E. coli and stabilizes a variety of diverse fusion proteins. A β2-β3 loop peptide comprising the sequence L^41-to-F^59—or mutants thereof—was fused to a flexible GGS linker at the SUMO C-terminus, and RNA binding was measured by ELISA. […] Stapling was accomplished by inserting nucleophiles using L44C and F56C mutations. Following treatment with a reducing agent (DTT), chemical cyclization was achieved by SNAr conjugation using polyfluorinated biarylsulfoxide; β2-β3 loop peptides with R-to-A mutations were prepared similarly. […]

U1hpII [1] = assay: ELISA RNA binding of SUMO fusion proteins, U1hpII
Text: as §1, §2, §3, §4

U1hpII [2] = assay: SPR binding to U1hpII; details: FIG. 4D
Text: FIG. 4A-F depict the TBP evolution screen.

TAR = details: FIG. 4D
Text: (A) Yeast display platform to identify U1A-derived proteins that bind TAR. […] (C) ELISA data depicting binding between evolved proteins and TAR. […] (E) Sequences of TAR mutants used to elucidate TBP6.6 and TBP 6.7 binding selectivity. (F) ELISA data showing relative affinities between TBP6.6 or TBP6.7.

BIV TAR = assay: ELISA RNA binding of SUMO fusion proteins, BIV TAR; design: species or system Bovine immunodeficiency virus
Text: as §1, §2, §3, §4

Molecule | ELISA binding to HIV TAR (HIV TAR) | ELISA binding to U1hpII (U1hpII [1]) | SPR recognition of U1hpII (U1hpII [2]) | SPR recognition of TAR (TAR) | ELISA binding to BIV TAR (BIV TAR)
U1A: parental RRM protein, starting protein whose native target is U1hpII | did not interact with BIV or HIV TAR | highest relative level of binding; also recorded: binds U1hpII | tightly binds U1hpII | does not bind TAR | did not interact with BIV or HIV TAR
B1 | does not have appreciable TAR binding; also recorded: no appreciable RNA binding; also recorded: does not bind | no appreciable RNA binding; also recorded: does not bind |  |  | no appreciable RNA binding; also recorded: does not bind
